Values quoted from earlier work in the CATMoS acute toxicity set (Mansouri et al. 2021).
Where “and” joins values, the source holds several entries; their conditions need not be identical. Identical values can stand only once.

Assay: rat acute oral toxicity
Details: in vivo

**Q.** Which LD50 does the source give for `COc1ccc(/C=C/C(=O)Nc2ccccc2C(=O)O)cc1OC` here?
**A.** 1100 mg/kg

**Q.** For `Nc1ccc(C=Cc2ccc([N+](=O)[O-])cc2S(=O)(=O)O)c(S(=O)(=O)O)c1`, which LD50 is on record?
**A.** 14200 mg/kg

**Q.** With `CC(C)OP(=S)(OC(C)C)SCn1nc(-c2ccccc2)ccc1=O` as the molecule, how does the LD50 read?
**A.** 25000 mg/kg

**Q.** With `CCC(O)(c1ccccc1)c1cccc(C(F)(F)F)c1` (stereo unspecified) as the molecule, how does the LD50 read?
**A.** 2240 mg/kg

**Q.** Which LD50 does the source give for `O=C(O)CCCCCCl` here?
**A.** 3080 mg/kg

**Q.** With `CC(C=CC=C(C)C(=O)OC1OC(COC2OC(CO)C(O)C(O)C2O)C(O)C(O)C1O)=CC=CC=C(C)C=CC=C(C)C(=O)OC1OC(COC2OC(CO)C(O)C(O)C2O)C(O)C(O)C1O` (stereo unspecified) as the molecule, how does the LD50 read?
**A.** 3160 mg/kg

**Q.** Which LD50 does the source give for `CCc1nc(N)nc(N)c1-c1ccccc1` here?
**A.** 126 mg/kg

**Q.** For `CC(=O)OC(C)(C)Cc1ccccc1`, which LD50 is on record?
**A.** 3300 mg/kg

**Q.** With `CCOC(=O)C(Br)C#N` (stereo unspecified) as the molecule, how does the LD50 read?
**A.** 420 mg/kg

**Q.** With `CN(C)CCN` as the molecule, how does the LD50 read?
**A.** 1140 mg/kg

**Q.** For `CC1CC=CC2C3OC3(C)C(C)C3C(Cc4ccccc4)NC(=O)C23OC(=O)OC=CC(C)(O)C1=O` (stereo unspecified), which LD50 is on record?
**A.** 9.1 mg/kg

**Q.** With `FC(F)(F)c1nc2c(Br)c(Cl)c(Br)cc2[nH]1` as the molecule, how does the LD50 read?
**A.** 8.47 mg/kg

**Q.** For `CCCCCCCC[N+](C)(CCCCCCCC)CCCCCCCC`, which LD50 is on record?
**A.** 223 mg/kg

**Q.** For `C=CC(=O)OCCOCCOCCOCCOC(=O)C=C`, which LD50 is on record?
**A.** 813 mg/kg

**Q.** With `CCC1(CC)Oc2cccc(OC(=O)N(C)C(C)=O)c2O1` as the molecule, how does the LD50 read?
**A.** 375 mg/kg

**Q.** For `O=C1CC2(CCCC2)CC(=O)N1CCCCN1CCN(c2nsc3ccccc23)CC1`, which LD50 is on record?
**A.** 1850 mg/kg

**Q.** Which LD50 does the source give for `C=CCON/C(CCC)=C1\C(=O)CC(C)(C)C(C(=O)OC)=C1O` here?
**A.** 2260 mg/kg

**Q.** Which LD50 does the source give for `CC1(C)CO1` here?
**A.** 3890 mg/kg

**Q.** Which LD50 does the source give for `CC(=O)O[C@]1(C)CC[C@@]23C[C@@H]1C(C)(C)[C@@H]2CC[C@H]3C` here?
**A.** 44800 mg/kg

**Q.** With `O=C1c2ccccc2C(=O)c2c1ccc1c2[nH]c2ccc3c4ccc5c6c(ccc(c(=O)c3c21)c46)c1ccc2c(=O)c3ccccc3c3nn5c1c23` as the molecule, how does the LD50 read?
**A.** 11200 mg/kg

**Q.** With `C=CCN(CC=C)C(=O)CSP(=S)(OCC)OCC` as the molecule, how does the LD50 read?
**A.** 48 mg/kg

**Q.** With `Oc1c(Cl)cnc(Cl)c1Cl` as the molecule, how does the LD50 read?
**A.** 80 mg/kg

**Q.** Which LD50 does the source give for `CC1(C)COC(c2ccccc2)CN1` (stereo unspecified) here?
**A.** 450 mg/kg and 480 mg/kg

**Q.** With `CCCCN=C(NCCCC)C(OCC)c1ccc(Cl)cc1` (stereo unspecified) as the molecule, how does the LD50 read?
**A.** 220 mg/kg

**Q.** Which LD50 does the source give for `C=CCN1CCC23CCCCC2C1Cc1ccc(O)cc13` (stereo unspecified) here?
**A.** 850 mg/kg

**Q.** Which LD50 does the source give for `COc1cccc2c1cc([N+](=O)[O-])c1c(C(=O)O)cc3c(c12)OCO3` here?
**A.** 184 mg/kg

**Q.** With `CCC(C)N(C(=O)c1c(Cl)cccc1Cl)C(C)CC` (stereo unspecified) as the molecule, how does the LD50 read?
**A.** 1450 mg/kg

**Q.** For `CN(C)CCN(Cc1ccccc1)c1ccccc1`, which LD50 is on record?
**A.** 300 mg/kg

**Q.** Which LD50 does the source give for `ClC=Cc1ccccc1` here?
**A.** 5200 mg/kg

**Q.** Which LD50 does the source give for `C1CN(CCOCCN2CCOCC2)CCO1` here?
**A.** 2020 mg/kg

**Q.** With `Cc1cc(O)c(C)c(C)c1O` as the molecule, how does the LD50 read?
**A.** 3200 mg/kg

**Q.** For `O=P(O)(O)OCC(Cl)(Cl)Cl`, which LD50 is on record?
**A.** 850 mg/kg and 1900 mg/kg

**Q.** With `NC(=O)C1c2ccccc2CCc2ccccc21` as the molecule, how does the LD50 read?
**A.** 2400 mg/kg

**Q.** For `C=CC[C@@H]1C=C(C)C[C@H](C)C[C@H](OC)[C@H]2O[C@@](O)(C(=O)C(=O)N3CCCC[C@H]3C(=O)O[C@H](C(C)=C[C@@H]3CC[C@@H](O)[C@H](OC)C3)[C@H](C)[C@@H](O)CC1=O)[C@H](C)C[C@@H]2OC`, which LD50 is on record?
**A.** 134 mg/kg

**Q.** Which LD50 does the source give for `CC(C)(CO)S(C)(=O)=O` here?
**A.** 11300 mg/kg

**Q.** Which LD50 does the source give for `CCC(CC)COCCOCCCN1C(=O)C2C3C=CC(C3)C2C1=O` (stereo unspecified) here?
**A.** 9500 mg/kg

**Q.** With `C1CNCCNC1` as the molecule, how does the LD50 read?
**A.** 2830 mg/kg

**Q.** With `CC(=O)N[C@@H](Cc1c[nH]c2ccccc12)C(=O)O` as the molecule, how does the LD50 read?
**A.** 15000 mg/kg

**Q.** Which LD50 does the source give for `CCCCC(CC)CN(CCO)CC(CC)CCCC` (stereo unspecified) here?
**A.** 4920 mg/kg

**Q.** With `C=C(C)C(=O)OCCC[Si](OC)(OC)OC` as the molecule, how does the LD50 read?
**A.** 23500 mg/kg

**Q.** For `Fc1ccccc1`, which LD50 is on record?
**A.** 4400 mg/kg

**Q.** With `C=CC(=C)Cl` as the molecule, how does the LD50 read?
**A.** 450 mg/kg

**Q.** With `Nc1ccc(-c2ccc(-n3nc4ccc5c(S(=O)(=O)O)cc(S(=O)(=O)O)cc5c4n3)cc2)cc1S(=O)(=O)O` as the molecule, how does the LD50 read?
**A.** 9500 mg/kg

**Q.** With `CCN(CC)c1ccc(C=O)cc1` as the molecule, how does the LD50 read?
**A.** 6400 mg/kg

**Q.** With `COC(=NC#N)OC` as the molecule, how does the LD50 read?
**A.** 1500 mg/kg

**Q.** Which LD50 does the source give for `O=C(OCC1(COC(=O)c2cccnc2)CCCC(COC(=O)c2cccnc2)(COC(=O)c2cccnc2)C1O)c1cccnc1` here?
**A.** 10000 mg/kg

**Q.** With `CCCCC(CC)COC(C[n+]1ccccc1)c1cccc(C2CCCCC2)c1` (stereo unspecified) as the molecule, how does the LD50 read?
**A.** 250 mg/kg

**Q.** With `CN(C)S(=O)(=O)CCNC(=O)N(CCCl)N=O` as the molecule, how does the LD50 read?
**A.** 39 mg/kg

**Q.** Which LD50 does the source give for `O=C(O)CCCN1C(=O)c2cccc3cccc(c23)C1=O` here?
**A.** 4000 mg/kg

**Q.** For `OC(COc1ccccc1)COc1ccccc1`, which LD50 is on record?
**A.** 1450 mg/kg

**Q.** Which LD50 does the source give for `Cc1nc(N)nc(N)c1-c1ccc(Br)cc1` here?
**A.** 250 mg/kg

**Q.** Which LD50 does the source give for `COc1ccc(C(=C(C#N)CCC(=O)O)c2ccc(OC)cc2)cc1` here?
**A.** 337 mg/kg

**Q.** Which LD50 does the source give for `COc1cc(C(=O)N2CCOCC2)cc(OC)c1OC` here?
**A.** 1800 mg/kg

**Q.** With `Cc1cc(C2CCCCC2)n(O)c(=O)c1` as the molecule, how does the LD50 read?
**A.** 2350 mg/kg

**Q.** Which LD50 does the source give for `CC(C)=NNC(=O)CSc1cc(Oc2ccccc2)ncn1` here?
**A.** 1080 mg/kg

**Q.** Which LD50 does the source give for `C=CC(=O)NCNC(=O)C=C` here?
**A.** 390 mg/kg

**Q.** With `CCCCC(C#N)(Cn1ccnc1)c1ccccc1` (stereo unspecified) as the molecule, how does the LD50 read?
**A.** 1590 mg/kg

**Q.** Which LD50 does the source give for `CCOC(CC(OCC)OCC)OCC` here?
**A.** 1610 mg/kg

**Q.** For `CCc1cc2c(s1)N(C)C(=O)CN=C2c1ccccc1Cl`, which LD50 is on record?
**A.** 1460 mg/kg

**Q.** Which LD50 does the source give for `Oc1ccc(Cl)c(O)c1` here?
**A.** 369 mg/kg

**Q.** For `CNC(=O)c1ccc(Cl)c(S(=O)(=O)NC)c1`, which LD50 is on record?
**A.** 1400 mg/kg

**Q.** Which LD50 does the source give for `C[N+]1(C)[C@@H]2CC[C@H]1C[C@@H](OC(=O)C(CO)c1ccccc1)C2` (stereo partly specified) here?
**A.** 1050 mg/kg and 1900 mg/kg

**Q.** Which LD50 does the source give for `CON(C)C(=O)/C=C(\C)OP(=O)(OC)OC` here?
**A.** 2 mg/kg

**Q.** For `Nc1nc2ccccc2o1`, which LD50 is on record?
**A.** 600 mg/kg

**Q.** With `CCN(CC)CCNC(=O)COc1cc(OC)c(OC)c(OC)c1` as the molecule, how does the LD50 read?
**A.** 1760 mg/kg

**Q.** Which LD50 does the source give for `CCC1(c2ccccc2)C(=O)N=C(O)NC1=O` (stereo unspecified) here?
**A.** 150 mg/kg

**Q.** Which LD50 does the source give for `CCc1nn(-c2ccc(F)cc2)c2c(=O)[nH]ccc12` here?
**A.** 375 mg/kg

**Q.** Which LD50 does the source give for `NS(=O)(=O)c1ccccc1` here?
**A.** 991 mg/kg

**Q.** With `CC(C[N+](C)(C)C)OC(N)=O` (stereo unspecified) as the molecule, how does the LD50 read?
**A.** 1500 mg/kg

**Q.** For `CCCCCCOCCOC(=O)CCCCC(=O)OCCOCCCCCC`, which LD50 is on record?
**A.** 4290 mg/kg

**Q.** Which LD50 does the source give for `C[C@@H]1CCCCN1N=O` here?
**A.** 600 mg/kg
